Test results: patent US20220348592A1, “FUSED HETEROCYCLIC DERIVATIVES” (Janssen Sciences Ireland Unlimited Company, priority 2019, published 2022)

How the values were obtained:
[1] = Cytotoxicity in HepG2.117 cells, ATPlite Luminescence Assay; type: cell-based, human; settings: human, incubated for 3 days, mean value, read-out: TOX-HepG2.117 CC50 (μM, mean value)
Procedure: Cytotoxicity of the compounds was tested using HepG2 or HepG2.117 cells, incubated for 3 days in the presence of compounds. The viability of the cells was assessed using the PERKIN ELMER ATPlite Luminescence Assay System.”

HBV = assay: Anti-HBV activity: intracellular HBV DNA by real-time PCR in HepG2.117 cell line; type: cell-based, Hepatitis B virus; settings: Hepatitis B virus, 72 h; HepG2.117 cells, 3 days of treatment, intracellular HBV DNA by real-time PCR, mean value; read-out: HBV-AVE-HepG2.117 EC50 (μM, mean value)
Procedure: The anti HBV activity was measured using the HepG2.117 cell line, a stable, inducibly HBV producing cell line, which replicates HBV in the absence of doxicycline (Tet-off system). The HepG2 cell line is available from ATCC® under number HB-8065. Transfection of the HepG2 cell line can be as described in Sun and Nassal 2006 Journal of Hepatology 45 (2006) 636-645 “Stable HepG2- and Huh7-based human hepatoma cell lines for efficient regulated expression of infectious hepatitis B virus”.
For the antiviral assay, HBV replication was induced, followed by a treatment with serially diluted compound in 96-well plates. After 3 days of treatment, the antiviral activity was determined by quantification of intracellular HBV DNA using real-time PCR and an HBV specific primer set and probe.

O=C1NCCn2nc3c(c21)CN(C(=O)c1ccc(Cl)c(Cl)c1)CC3 [Compound 1, 2-(3,4-Dichlorobenzoyl)-1,2,3,4,8,9-hexahydropyrido[4′,3′:3,4]pyrazolo[1,5-a]pyrazin-10(7H)-one]
CC50 at 3 days [1]: > 50 µM | EC50 (HBV): 9.63 µM

C[C@@H]1Cc2nn3c(c2CN1C(=O)c1ccc(Cl)c(Cl)c1)C(=O)N([C@@H](C)c1ccc(OC(F)F)cc1)CC3 [Compound 28, (3R)-2-(3,4-Dichlorobenzoyl)-9-{(1S)-1-[4-(difluoromethoxy)phenyl]ethyl}-3-methyl-1,2,3,4,8,9-hexahydropyrido[4′,3′:3,4]pyrazolo[1,5-a]pyrazin-10(7H)-one]
CC50 at 3 days [1]: 16.7 µM | EC50 (HBV): 0.057 µM

C[C@@H]1Cc2nn3c(c2CN1C(=O)c1ccc(Cl)c(Cl)c1)C(=O)N(Cc1cc(F)ccc1C(F)(F)F)CC3 [Example C181]
CC50 at 3 days [1]: > 50 µM | EC50 (HBV): 0.152 µM

Cc1c(F)ccc2[nH]c(C(=O)N3Cc4c(nn5c4C(=O)N(Cc4ccccn4)CC5)C[C@H]3C)cc12 [Example C107]
CC50 at 3 days [1]: 13.2 µM | EC50 (HBV): 0.015 µM

CC(c1ccc(F)nc1)N1CCn2nc3c(c2C1=O)CN(C(=O)c1ccc(Cl)c(Cl)c1)[C@H](C)C3 (stereo partly drawn) [Example C128]
CC50 at 3 days [1]: > 50 µM | EC50 (HBV): 0.081 µM

C[C@@H]1Cc2nn3c(c2CN1C(=O)c1ccc(Cl)c(Cl)c1)C(=O)N(Cc1ccncc1C(F)F)CC3 [Example C167]
CC50 at 3 days [1]: > 50 µM | EC50 (HBV): 0.277 µM

C[C@@H]1Cc2nn3c(c2CN1C(=O)c1ccc(Cl)c(Cl)c1)C(=O)N(Cc1cc[nH]n1)CC3 [Compound 20, (3R)-2-(3,4-Dichlorobenzoyl)-3-methyl-9-[(1H-pyrazol-3-yl)methyl]-1,2,3,4,8,9-hexahydro-pyrido[4′,3′:3,4]pyrazolo[1,5-a]pyrazin-10(7H)-one]
CC50 at 3 days [1]: > 50 µM | EC50 (HBV): 0.108 µM

Cc1cc(F)ccc1CN1CCn2nc3c(c2C1=O)CN(C(=O)c1ccc(Cl)c(Cl)c1)[C@H](C)C3 [Example C154]
CC50 at 3 days [1]: 9.53 µM | EC50 (HBV): 0.071 µM

C[C@@H]1Cc2nn3c(c2CN1C(=O)c1ccc(Cl)c(Cl)c1)C(=O)N(Cc1cc(Cl)cc(C#N)c1)CC3 [Example C161]
CC50 at 3 days [1]: > 50 µM | EC50 (HBV): 0.051 µM

COc1ccc(C(C)N2CCn3nc4c(c3C2=O)CN(C(=O)c2ccc(Cl)c(Cl)c2)[C@H](C)C4)cc1F (stereo partly drawn) [Example C86]
CC50 at 3 days [1]: > 50 µM | EC50 (HBV): 0.046 µM

C[C@@H]1Cc2nn3c(c2CN1C(=O)c1ccc(Cl)c(Cl)c1)C(=O)N(Cc1ccc(F)cn1)CC3 [Example C208]
CC50 at 3 days [1]: > 50 µM | EC50 (HBV): 0.13 µM

Cc1cc(CN2CCn3nc4c(c3C2=O)CN(C(=O)c2ccc(Cl)c(Cl)c2)[C@H](C)C4)ccc1C#N [Example C204]
CC50 at 3 days [1]: 19.2 µM | EC50 (HBV): 0.028 µM

CC(c1cccnc1)N1CCn2nc3c(c2C1=O)CN(C(=O)c1ccc(Cl)c(Cl)c1)[C@H](C)C3 (stereo partly drawn) [Example C185]
CC50 at 3 days [1]: > 50 µM | EC50 (HBV): 0.114 µM

C[C@@H]1Cc2nn3c(c2CN1C(=O)c1ccc(Cl)c(Cl)c1)C(=O)N(Cc1nc(C2CC2)nn1C)CC3 [Example C235]
CC50 at 3 days [1]: > 50 µM | EC50 (HBV): 1.93 µM

C[C@@H]1Cc2nn3c(c2CN1C(=O)c1ccc(C(F)(F)F)cc1)C(=O)N(Cc1ccccn1)CC3 [Example C115]
CC50 at 3 days [1]: > 50 µM | EC50 (HBV): 0.265 µM

CC(c1c(F)cccc1F)N1CCn2nc3c(c2C1=O)CN(C(=O)c1ccc(Cl)c(Cl)c1)[C@H](C)C3 (stereo partly drawn) [Example C248]
CC50 at 3 days [1]: 25 µM | EC50 (HBV): 0.013 µM

COc1ccc(CN2CCn3nc4c(c3C2=O)CN(C(=O)c2ccc(Cl)c(Cl)c2)[C@H](C)C4)cn1 [Example C106]
CC50 at 3 days [1]: 33.8 µM | EC50 (HBV): 0.031 µM

C[C@@H]1Cc2nn3c(c2CN1C(=O)c1ccc(Cl)c(Cl)c1)C(=O)N([C@@H](C)c1ccccc1C(F)(F)F)CC3 (relative stereo) [C123*R]
CC50 at 3 days [1]: 20 µM | EC50 (HBV): 0.174 µM

CC(c1cccc(F)c1)N1CCn2nc3c(c2C1=O)CN(C(=O)c1ccc(Cl)c(Cl)c1)[C@H](C)C3 (stereo partly drawn) [Example C188]
CC50 at 3 days [1]: 49.6 µM | EC50 (HBV): 0.04 µM

C[C@@H]1Cc2nn3c(c2CN1C(=O)c1ccc(Cl)c(Cl)c1)C(=O)N(Cc1ncoc1C(F)(F)F)CC3 [Example C169]
CC50 at 3 days [1]: > 50 µM | EC50 (HBV): 0.831 µM

CC(C)c1noc(C(C)N2CCn3nc4c(c3C2=O)CN(C(=O)c2ccc(Cl)c(Cl)c2)[C@H](C)C4)n1 (stereo partly drawn) [Example C183]
CC50 at 3 days [1]: > 50 µM | EC50 (HBV): 0.108 µM

COc1ccc(CN2CCn3nc4c(c3C2=O)CN(C(=O)c2ccc(Cl)c(Cl)c2)[C@H](C)C4)cc1 [Compound 11, (3R)-2-(3,4-Dichlorobenzoyl)-9-[(4-methoxyphenyl)methyl]-3-methyl-1,2,3,4,8,9-hexahydro-pyrido[4′,3′:3,4]pyrazolo[1,5-a]pyrazin-10(7H)-one]
CC50 at 3 days [1]: 8.43 µM | EC50 (HBV): 0.054 µM

COc1ccc(CN2CCn3nc4c(c3C2=O)CN(C(=O)c2ccc(C(F)F)c(F)c2)CC4)cc1 [Example C68]
CC50 at 3 days [1]: 10.6 µM | EC50 (HBV): 0.321 µM

CC(c1ccc(Br)cc1)N1CCn2nc3c(c2C1=O)CN(C(=O)c1ccc(Cl)c(Cl)c1)[C@H](C)C3 (stereo partly drawn) [Example C98]
CC50 at 3 days [1]: 9.83 µM | EC50 (HBV): 0.073 µM

CC(c1ccc(F)c(F)c1)N1CCn2nc3c(c2C1=O)CN(C(=O)c1ccc(Cl)c(Cl)c1)[C@H](C)C3 (stereo partly drawn) [Example C186]
CC50 at 3 days [1]: 21.6 µM | EC50 (HBV): 0.049 µM

COc1cc(Cl)ccc1C(=O)N1CCc2nn3c(c2C1)C(=O)N(Cc1ccccn1)CC3 [Example C76]
CC50 at 3 days [1]: > 25 µM | EC50 (HBV): 0.983 µM

COc1ccc(CN2CCn3nc4c(c3C2=O)CN(C(=O)c2ccc(Cl)c(Cl)c2)[C@H](C)C4)cc1C#N [Example C163]
CC50 at 3 days [1]: > 50 µM | EC50 (HBV): 0.098 µM

C[C@@H]1Cc2nn3c(c2CN1C(=O)c1ccc(Cl)c(Cl)c1)C(=O)N([C@@H](C)c1ccc(C#N)cc1)CC3 (relative stereo) [C88*S]
CC50 at 3 days [1]: > 50 µM | EC50 (HBV): 0.023 µM

COc1ccc([C@H](C)N2CCn3nc4c(c3C2=O)CN(C(=O)c2ccc(Cl)c(Cl)c2)[C@H](C)C4)cc1 [Compound 24, (3R)-2-(3,4-dichlorobenzoyl)-9-[(1S)-1-(4-methoxyphenyl)ethyl]-3-methyl-1,2,3,4,8,9-hexahydropyrido[4′,3′:3,4]pyrazolo[1,5-a]pyrazin-10(7H)-one]
CC50 at 3 days [1]: 10.4 µM | EC50 (HBV): 0.036 µM

C[C@@H]1Cc2nn3c(c2CN1C(=O)c1ccc(Cl)c(Cl)c1)C(=O)N(Cc1cc(C(F)F)on1)CC3 [Example C182]
CC50 at 3 days [1]: > 50 µM | EC50 (HBV): 0.075 µM

Cc1noc(CN2CCn3nc4c(c3C2=O)CN(C(=O)c2ccc(Cl)c(Cl)c2)[C@H](C)C4)n1 [Example C148]
CC50 at 3 days [1]: > 50 µM | EC50 (HBV): 0.385 µM

COc1ccc(CN2CCCn3nc4c(c3C2=O)CN(C(=O)c2ccc(Cl)c(Cl)c2)CC4)cc1 [Compound 36, 2-(3,4-Dichlorobenzoyl)-10-[(4-methoxyphenyl)methyl]-1,2,3,4,7,8,9,10-octahydro-11H-pyrido[4′,3′:3,4]pyrazolo[1,5-a][1,4]diazepin-11-one]
CC50 at 3 days [1]: 24.6 µM | EC50 (HBV): 0.077 µM

C[C@@H]1Cc2nn3c(c2CN1C(=O)c1ccc(Cl)c(Cl)c1)C(=O)N([C@@H](C)c1ccc(C(F)(F)F)cc1)CC3 (relative stereo) [C105*S]
CC50 at 3 days [1]: > 50 µM | EC50 (HBV): 0.297 µM

C[C@@H]1Cc2nn3c(c2CN1C(=O)c1ccc(Cl)c(Cl)c1)C(=O)N(Cc1cccc(C#N)c1F)CC3 [Example C231]
CC50 at 3 days [1]: > 50 µM | EC50 (HBV): 0.09 µM

C[C@@H]1Cc2nn3c(c2CN1C(=O)c1cc2c(Cl)ccc(F)c2[nH]1)C(=O)N(Cc1ccccn1)CC3 [Example C117]
CC50 at 3 days [1]: 18.2 µM | EC50 (HBV): 0.119 µM

CC(c1ccncc1)N1CCn2nc3c(c2C1=O)CN(C(=O)c1ccc(Cl)c(Cl)c1)CC3 (stereo not drawn) [Compound 5, 2-(3,4-Dichlorobenzoyl)-9-[1-(pyridin-4-yl)ethyl]-1,2,3,4,8,9-hexahydropyrido[4′,3′:3,4-]pyrazolo[1,5-a]pyrazin-10(7H)-one]
CC50 at 3 days [1]: > 50 µM | EC50 (HBV): 0.213 µM

CC(c1nccs1)N1CCn2nc3c(c2C1=O)CN(C(=O)c1ccc(Cl)c(Cl)c1)[C@H](C)C3 (stereo partly drawn) [Example C218]
CC50 at 3 days [1]: > 50 µM | EC50 (HBV): 0.039 µM

CC(C)Oc1ccc(CN2CCn3nc4c(c3C2=O)CN(C(=O)c2ccc(Cl)c(Cl)c2)[C@H](C)C4)cc1 [Example C164]
CC50 at 3 days [1]: 4.29 µM | EC50 (HBV): 0.039 µM

C[C@@H]1Cc2nn3c(c2CN1C(=O)c1ccc(Cl)c(Cl)c1)C(=O)N(Cc1cnc(Cl)c(F)c1)CC3 [Example C240]
CC50 at 3 days [1]: 35.2 µM | EC50 (HBV): 0.017 µM

COc1ccc(CN2CCn3nc4c(c3C2=O)CN(C(=O)c2ccc(Cl)c(Cl)c2)CC4)cc1 [Compound 4, 2-(3,4-Dichlorobenzoyl)-9-[(4-methoxyphenyl)methyl]-1,2,3,4,8,9-hexahydropyrido[4′,3′:3,4]-pyrazolo[1,5-a]pyrazin-10(7H)-one]
CC50 at 3 days [1]: 17.9 µM | EC50 (HBV): 0.091 µM

CC(c1cnccn1)N1CCn2nc3c(c2C1=O)CN(C(=O)c1ccc(Cl)c(Cl)c1)[C@H](C)C3 (stereo partly drawn) [Example C246]
CC50 at 3 days [1]: > 50 µM | EC50 (HBV): 0.171 µM

C[C@@H]1Cc2nn3c(c2CN1C(=O)c1ccc(Cl)c(Cl)c1)C(=O)N(Cc1cccnc1)CC3 [Compound 16, (3R)-2-(3,4-Dichlorobenzoyl)-3-methyl-9-[(pyridin-3-yl)methyl]-1,2,3,4,8,9-hexahydropyrido-[4′,3′:3,4]pyrazolo[1,5-a]pyrazin-10(7H)-one]
CC50 at 3 days [1]: > 50 µM | EC50 (HBV): 0.079 µM
